We go through twelve compounds from ChEMBL document CHEMBL1140241, “Discovery of new diphenyloxazole derivatives containing a pyrrolidine ring: orally active prostacyclin mimetics. Part 2” (Bioorg Med Chem Lett, 2005).

The species named for one data set is Canis familiaris. Nature of the data set: In vitro inhibition of ADP-induced platelet aggregation in dog platelet rich plasma. Format: functional. The settings on record: Canis lupus familiaris.
Data set [1] is described as follows: In vitro inhibition of ADP-induced platelet aggregation in human platelet rich plasma. Format: functional, cell-free.
For a further data set, the species on record is Rattus norvegicus. Nature of the data set: In vitro inhibition of ADP-induced platelet aggregation in rat platelet rich plasma. Format: functional.
The nature of data set [2]: Total body clearance of drug from the plasma after intravenous administration at 0.032 mg/kg in dog. Format: ADME, organism-based, Canis lupus familiaris. More on the design: dose 0.032 mg/kg, route intravenous. The settings on record: read-out: CLtot.
Data set [3] can be described thus: In vitro inhibition of ADP-induced platelet aggregation in monkey platelet rich plasma. The settings on record: Cercopithecidae. Format: functional.
The nature of data set [4]: Area Under Plasma concentration-time curve after peroral administration at a dose of 0.032 mg/kg in dog. Format: ADME, organism-based, Canis lupus familiaris. More on the design: dose 0.032 mg/kg, route oral. The settings on record: po.
Data set [5] can be described thus: Area under plasma concentration-time curve after peroral administration at a dose of 3.2 mg/kg in rat (n=3). Format: ADME, organism-based. The settings on record: po. More on the design: dose 3.2 mg/kg, route oral.
The nature of data set [6]: Total body clearance of drug from the plasma after intravenous administration at 3.2 mg/kg in rat. Format: ADME, organism-based. More on the design: dose 3.2 mg/kg, route intravenous. Particulars: read-out: CLtot.
Data set [7] is described as follows: Maximum (peak) plasma drug concentration after peroral administration at a dose of 0.032 mg/kg in dog. Format: ADME, organism-based, Canis lupus familiaris. More on the design: dose 0.032 mg/kg, route oral. The settings on record: po.
Data set [8] can be described thus: Elimination half-life after intravenous administration at a dose of 3.2 mg/kg in rat (n=3). Particulars: in vivo. More on the design: dose 3.2 mg/kg, route intravenous. Format: ADME, organism-based.
The nature of data set [9]: Maximum (peak) plasma drug concentration after peroral administration at a dose of 3.2 mg/kg in rat (n=3). Particulars: po. Format: ADME, organism-based. More on the design: dose 3.2 mg/kg, route oral.
Data set [10] in a line: Percent oral bioavailability of the drug after intravenous administration at 0.032 mg/kg in dog. The settings on record: in vivo, read-out: Ba. Format: ADME, organism-based, Canis lupus familiaris.
The nature of data set [11]: Elimination half-life after intravenous administration at a dose of 0.032 mg/kg in dog. Particulars: in vivo. Format: ADME, organism-based, Canis lupus familiaris. More on the design: dose 0.032 mg/kg, route intravenous.
Data set [12] is described as follows: Percent oral bioavailability after intravenous administration at 3.2 mg/kg in rat. Format: ADME, organism-based. Particulars: in vivo, read-out: Ba.

pIC50: −log10 of the molar value.

Broadly, the pIC50 is the negative decadic logarithm of the IC50, by convention in mol/L. On to `O=C(O)COc1cccc(C[C@@H]2CCCC=C2c2nc(-c3ccccc3)c(-c3ccccc3)o2)c1`, for which the pIC50 was 5.89 in the data set listed under Canis familiaris, 7.22 in [1] and 5.92 in the data set filed under Rattus norvegicus.
Take `O=C(O)COc1cccc2c1CCC[C@@H]2OCc1nc(-c2ccccc2)c(-c2ccccc2)o1`: the pIC50 in data set [1] was 5.85.
For orientation: AUC means concentration integrated over time. The Cmax is the highest concentration seen after dosing. The term half-life denotes the time needed for the level to fall by half in the phase considered. `O=C([O-])COc1cccc2c1CCC[C@H]2N1CCC[C@@H]1c1nc(-c2ccccc2)c(-c2ccccc2)o1.[Na+]`: the values for the clearance in data set [2] and in data set [6] were 1 mL/min/kg and 89.2 mL/min/kg, respectively. Further, the pIC50 is 7.23 in data set [3], 6.11 in the data set listed under Canis familiaris, 7.72 in data set [1] and 6.20 in the data set filed under Rattus norvegicus. Also, the AUC in data set [4] was 327 ng·h/mL; in data set [5] it was 172 ng·h/mL. The Cmax in data set [7] was determined as 61.2 ng/mL; in data set [9], 187 ng/mL. The results for the half-life in [8] and in data set [11] were 0.21 h and 2.25 h, respectively. Moreover, the bioavailability turned out to be 66% in data set [10] and 31% in data set [12].
As for `O=C(O)COc1cccc2c1CCC[C@@H]2N1CCC[C@@H]1c1nc(-c2ccccc2)c(-c2ccccc2)o1`, the pIC50 in data set [1] was 6.06; in the data set filed under Rattus norvegicus it was under 5.00.
For `O=C(O)COc1cccc2c1CCC[C@H]2NCc1nc(-c2ccccc2)c(-c2ccccc2)o1`, in that order: 6.72 and 5.30.
For `O=C(O)COc1cccc2c1CCCC2CCc1nc(-c2ccccc2)c(-c2ccccc2)o1` (configuration not stated) the same measures were 6.00 and under 5.00.
For the compound `O=C(O)COc1cccc2c1CCC[C@H]2OCc1nc(-c2ccccc2)c(-c2ccccc2)o1`, the pIC50 in data set [1] was 6.85.
Same read-out and setting: in the case of `O=C(O)COc1cccc2c1CCC[C@@H]2NCc1nc(-c2ccccc2)c(-c2ccccc2)o1` it was 5.82.
Turning to `O=C(O)COc1cccc2c1CCC[C@@H]2N1CCC[C@H]1c1nc(-c2ccccc2)c(-c2ccccc2)o1`, the pIC50 in [1] is 7.20; in the data set filed under Rattus norvegicus it was 5.66.
For `O=C(O)COc1cccc2c1CCC[C@H]2N1CCC[C@H]1c1nc(-c2ccccc2)c(-c2ccccc2)o1`, in that order: 6.19 and under 5.00.
Compound `CCC/C(CC1CCc2c(cccc2OCC(=O)O)C1)=N\OC(c1ccccc1)c1ccccc1` (configuration not stated) [AP-227] gave a pIC50 in data set [1] of 6.82.
As for `CC#CCC(C)[C@H](O)/C=C/[C@@H]1[C@H]2C/C(=C/CCCC(=O)O)C[C@H]2C[C@H]1O` (some centres not stated) [ILOPROST], the pIC50 in [1] was 8.60.
